According to article PMC5756575, “In Vitro Biotransformation, Safety, and Chemopreventive Action of Novel 8-Methoxy-Purine-2,6-Dione Derivatives” (Applied Biochemistry and Biotechnology, 2017):

Legend:
rat liver microsomes = assay: Microsomal stability assay; type: in vitro ADME; conditions: rat microsomal biotransformation after 30 min of incubation
Description: Compounds 1 and 3 were studied in a biotransformation assay using rat liver microsomes following procedures described previously. The reagents used in this assay were levallorphan (internal standard) and NADPH-regenerating system, which contained phosphate buffer (pH 7.4), NADP^+, glucose-6-phosphate, and glucose-6-phosphate dehydrogenase. The final protein concentration in the assay was 0.4 mg/mL. Compounds 1 and 3 were tested at a final concentration of 20 μM.
The amount of a parental compound remaining in a solution after biotransformation was monitored using LC-MS/MS as described previously in “Cunninghamella Biotransformation Assay.” Graphs representing ln of percentage of parent compound remaining versus incubation time were drawn to calculate in vitro half-time (t1/2) from the slope of linear regression. To obtain intrinsic clearance (Clint) of a tested compound in rat liver microsomal assay, t1/2 previously calculated was substituted at the equation Clint = [(Vmic/Pmic) × 0.693/t1/2], being Vmic and Pmic the volume of incubation in microliters and the amount of incubated protein in milligrams, respectively.
(§1) Agilent 1100 HPLC system (Agilent Technologies, Waldbronn, Germany) equipped with a Xbridge™ C18 analytical column (2.1 × 30 mm, […]; Waters, Dublin, Ireland) was used in the chromatographic separation of LC-MS/MS analysis. An elution gradient of acetonitrile and water, with 0.1% of formic acid, was used as a mobile phase. MS spectra were taken at Applied Biosystems MDS Sciex API 200 triple quadrupole mass analyzer (Concord, Ontario, Canada) with an electrospray ionization (ESI) interface between HPLC and MS.

[1] = system: Cunninghamella echinulata NRRL 1384; assay: Cunninghamella biotransformation assay, C. echinulata; type: in vitro ADME; conditions: 0.5 mg/mL, 7-day incubation, LC-MS/MS
Description: Three different strains of Cunninghamella were used: Cunninghamella echinulata NRRL 1384, Cunninghamella blakesleeana 1908 DMS, and Cunninghamella elegans 1906 DMS. The first was provided by Dr. A.J. Carnell (University of Liverpool, UK), whereas the two remaining were purchased from Deutsche Sammlung von Mikroorganismen und Zellkulturen GmbH (DMSZ, Braunschweig, Germany).
Cunninghamella strains were cultivated on solid potato dextrose agar (PDA) plates at 28 °C. After 4 days, a liquid fermentation basal medium was prepared by the addition of 6 g of D-glucose, 1.5 g of NaCl, 1.5 g of yeast extract from Saccharomyces cerevisiae, and 1.5 g of K2HPO4 to 300 mL of distilled water. Aliquots of 24.5 mL of medium were inoculated with 300 μL of suspension of fungal spores obtained after wetting colonies in PDA. The fungi were incubated with shaking until the formation of spherical clumps.
Compounds 2–4 were evaluated in this experiment. Once microorganisms formed spherical clumps in the preliminary incubation, the corresponding tested compound was added to the broth and the mixture was incubated for 7 days. Two control experiments were also performed, in the absence of compound and fungus, respectively. Biotransformation progress was monitored by TLC and by liquid chromatography electrospray ionization-tandem mass spectrometry (LC-MS/MS). Monitoring was performed at four different incubation times: 30 min, 3 days, 5 days, and 7 days.
To analyze metabolites in LC-MS/MS, an aliquot of 500 μL of filtered sample was taken and extracted with 500 μL of dichloromethane. The organic fraction was dried with sodium sulfate, filtered, and evaporated. The obtained residue was analyzed in LC-MS/MS. At the end of experiment, all the remaining medium was extracted with 25 mL of dichloromethane after separating the fungal clumps by filtration over cellulose filters.
as §1

SMILES	% content among metabolites (rat liver microsomes) [%]	% of compound/metabolite in C. echinulata [1] [%]
COc1nc2c(c(=O)n(C)c(=O)n2C)n1CCCC(N)=O [3-M1]	100	1.5
COc1nc2c(c(=O)n(C)c(=O)n2C)n1CCCC(=O)NCc1ccccc1O [3-M2]	–	1.6
COc1nc2c(c(=O)n(C)c(=O)n2C)n1CCCC(=O)NCc1cccc(O)c1 [3-M3]	–	0.3
